Assay results from patent publication US10934253B2, “Therapeutic compounds and methods” (UNIVERSITY OF TASMANIA, priority 2017, dated 2021).

Experiments:
[1] = tested on: DSS-induced colitis in C57BL/6 mice; assay: Dextran sulfate sodium (DSS) induced colitis mouse model; type: in vivo; settings: 2.5% DSS 7 days, 200 mg/kg orally in food once daily, vs DSS controls
Description: FIGS. 8-11: Ulcerative Colitis mouse model following treatment with representative compound of Formula (I) (UTA77); FIG. 8: Body weight loss; FIG. 9: Stool consistency; FIG. 10: Bloody stools; FIG. 11: Disease activity index. […] UTA77 was formulated with food powder (200 mg/kg of body weight) which was orally administered once daily over a period of 7 days.
Body weight (refer to FIG. 8), stool consistency (refer to FIG. 9), blood content of stools (refer to FIG. 10), and general disease activity index (refer to FIG. 11) were all assessed following treatment with representative compound of Formula (I), UTA77.
Female C57BL/6 mice were used at 7-8 weeks of age having an average body weight≈17 g. Mice were divided randomly into three different groups: • 1. a healthy control group without DSS, • 2. a control group with DSS, • 3. a group treated with DSS and test compound (n=5 per group).
Body weight of mice were assessed daily over an initial acclimation period of one week (FIG. 8). All mice were non-fasting and had access to food and drinking water (autoclaved tap water) ad libitum. Representative compounds of Formula (I) were formulated with food powder (200 mg/kg of body weight) to produce individual portions that were placed into the cage once a day. Representative compounds of Formula (I) (20 mg/ml) were stirred overnight at 4° C. in 500 ml 0.5% carboxymethylcellulose (CMC) solution. To 37.5 ml of the CMC solution, 41.25 g sucrose, 371.25 g food powder and 0.5% CMC solution were mixed to prepare a food mash, which was aliquoted (2.2 g portions) in weighting trays and individually stored at −20° C. Colitis was induced by supplementing 2.5% w/v of dextran sulphate sodium (DSS, MW=36,000-50,000, colitis grade, MP Biomedicals, USA) in the drinking water of mice from day 0 to day 7 (day of termination). On day 0, all mice were weighed and checked for stool consistency and occult blood before they were exposed to DSS and test compounds. Control animals were only supplied with autoclaved drinking water without DSS, and normal chow pellets, while 2.5% DSS in tap water was provided to the DSS-treated groups from day 0 to day 7. All controls groups were also supplied with 2.2 g of food mash without test compounds. The animals of the drug-treated groups received 200 mg/kg of test compounds in food mash with 2.5% of DSS in water from day 0 to day 7. Body weight (refer to FIG. 8), stool consistency (refer to FIG. 9), blood content of stools (refer to FIG. 10) were recorded daily. The Disease Activity Index (DAI) (FIG. 11) was calculated according to scoring Table 9 below. Each parameter was scored independently and all three parameters were added to calculate the DAI.

HepG2 cells [2] = assay: Cell viability in the presence of a mitochondrial inhibitor (rotenone 10 μM); type: cell-based; settings: Homo sapiens, HepG2, 48 h, read-out: CELL VIABILITY [%]
Description: (§1) Cytoprotection of HepG2 cells by naphthoquinones was quantified in the presence of the mitochondrial toxin, rotenone. Briefly, HepG2 cells were seeded in 96-well plates at 5000 cells/well in DMEM with 0.3 g/l glucose, 10% FBS and Penicillin-Streptomycin-Glutamine. After overnight incubation under standard conditions, cells were treated with the test compounds (10 μM) for 2 days before cells were challenged with 1 μM rotenone in the presence of 10 μM test compounds in Hank's balanced salt solution (HBSS) for 6 hours. This was followed by post-incubation for an additional 18 hours with only 10 μM test compounds in HBSS. For measurement of cell viability, cells were washed with 100 μL PBS twice and then lysed using 40 μL lysis solution (4 mM EDTA, 0.2% Triton X-100) for 5 min at room temperature (RT) on an orbital shaker at 200 rpm. Then 10 μL of the lysate was mixed with 90 μL of enzyme-substrate mixture (as described above) in a white 96 well plate and luminescence was measured immediately using a plate-reader (Fluoroscan Ascent, Thermo Scientific). The data is expressed as % viability compared to the untreated (no-rotenone) control.
The cytoprotective effects of representative compounds of Formula (I) were further examined in vitro in response to rotenone toxicity at (10 μM). […] Cells were treated with the representative compounds of Formula (I) compounds (10 μM) for 2 days before cells were challenged with 10 μM rotenone.
Vitamin K, Menadione and Idebenone were used as comparative controls.

HepG2 cells [3] = assay: Acute ATP rescue assay (impaired mitochondrial function, rotenone); type: cell-based; settings: Homo sapiens, 1 h; HepG2; 1 μM quinones with rotenone 10 μM, 60 minutes, glucose-free DMEM; % ATP compared to untreated (no-rotenone) control
Description: HepG2 cells were seeded at a density of 5000 cells per well in a 96-well plate and incubated for 24 hours in DMEM with 0.3 g/l glucose, 10% FBS and Penicillin-Streptomycin-Glutamine. Cells were treated with 1 μM quinones in presence or absence of rotenone (10 μM), for 60 minutes in glucose-free DMEM ATP levels were quantified using luminescence from the ATP-dependent enzymatic oxidation of luciferin by luciferase. Cells were lysed in a volume of 40 μl (4 mM EDTA, 0.2% Triton X-100) for five minutes at room temperature (RT) on an orbital shaker at 200 rpm. […] Luminescence was quantified immediately using a multimode plate reader (Fluoroscan Ascent, Thermo Scientific). ATP levels were standardized to protein levels using a commercial BCA assay (Protein DC; BioRad) and changes were calculated as percentage relative to levels of DMSO-treated control cells. Data is expressed as % ATP compared to the untreated (no-rotenone) control.
Vitamin K, menadione and idebenone were used as comparative controls. DMSO was used as a control.

HepG2 cells [4] = assay: Rescue of cell viability in the presence of a mitochondrial inhibitor (rotenone 1 μM); type: cell-based; settings: Homo sapiens, HepG2
Description: as §1
The extent of protection of cellular viability against a rotenone challenge of representative compounds of Formula (I) is shown below in Table 5. Vitamin K, Menadione and Idebenone were used as comparative controls. DMSO was used as a control.

SMILES: COc1ccc(CCNC(=O)CCCC2=C(C)C(=O)c3ccccc3C2=O)cc1OC [UTA #77, N-(3,4-dimethoxyphenethyl)-4-(3-methyl-1,4-naphthoquinone-2-yl)butanamide]
- Bloody stools (in words) [1]: reduction in bloody stools
- Body weight loss (in words) [1]: less weight loss than DSS controls
- Disease activity index (in words) [1]: reduced disease activity
- Stool consistency (in words) [1]: improved stools
- viability at 10 µM (HepG2 cells [2]): 95.9%
- activity at 1 µM (HepG2 cells [3]): 99.1%
- viability at 10 µM (HepG2 cells [4]): 95.9%
